SMILES strings stand for the structures.

BCLXL, sequence (Q07817 whole entry): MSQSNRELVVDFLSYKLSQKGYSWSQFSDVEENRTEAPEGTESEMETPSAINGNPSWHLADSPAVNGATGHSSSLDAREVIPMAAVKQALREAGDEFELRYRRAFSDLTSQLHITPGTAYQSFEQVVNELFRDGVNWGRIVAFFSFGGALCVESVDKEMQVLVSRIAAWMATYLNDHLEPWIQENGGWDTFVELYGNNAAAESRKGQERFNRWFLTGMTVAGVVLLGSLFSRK

In the first experiment the target is MCL1 (Homo sapiens, UniProt Q07820). The experiment can be described thus: MCL1 affinity assay (competition binding, qPCR readout). Particulars: recombinant MCL1, 11-point 3-fold dilution series. The method in brief: (§1)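 Competition binding: DNA-tagged recombinant protein (E. coli BL21-derived or HEK-293), biotinylated peptide ligand-loaded streptavidin beads and compound incubated 1 hour at room temperature, 0.9% DMSO final. Bound protein eluted with 0.5 μM non-biotinylated ligand and quantified by qPCR; Kd from 11-point 3-fold dilution series.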
MCL1, sequence (Q07820 whole entry): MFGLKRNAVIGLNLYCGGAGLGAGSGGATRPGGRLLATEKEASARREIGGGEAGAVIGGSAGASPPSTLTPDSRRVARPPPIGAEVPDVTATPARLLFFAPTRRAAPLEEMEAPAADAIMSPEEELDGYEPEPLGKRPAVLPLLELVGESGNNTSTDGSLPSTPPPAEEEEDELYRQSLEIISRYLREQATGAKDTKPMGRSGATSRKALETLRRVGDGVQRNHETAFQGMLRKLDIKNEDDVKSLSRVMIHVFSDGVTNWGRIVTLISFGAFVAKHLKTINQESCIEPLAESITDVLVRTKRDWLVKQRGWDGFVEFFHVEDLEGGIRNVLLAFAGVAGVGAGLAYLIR
(In general: In qPCR the cycle at which signal appears reflects the starting amount.)
Take `Cc1c(-c2c(-c3cccc(F)c3)ncc3snc(O[C@H](Cc4ccccc4)C(=O)O)c23)ccc(OCCN2CCN(C)CC2)c1Cl` (atropisomer, axis not shown) [Compound 92]: the Kd (commonly a measure of binding affinity in units of concentration) fell in the range of 501 to 1500 nM.
`Cc1c(-c2c(-c3ccc(F)s3)ncc3snc(O[C@H](Cc4ccccc4OCc4ccnn4CC(F)(F)F)C(=O)O)c23)ccc(OCCN2CCN(C)CC2)c1Cl` (single isomer, unassigned) [Compound 1]: the Kd is greater than 1500 nM.
In the case of `Cc1c(-c2c(-c3ccc(F)s3)ncc3snc(O[C@H](Cc4ccccc4OCc4ccnn4CC(F)(F)F)C(=O)O)c23)ccc(OCCN2CCN(C)CC2)c1Cl` (single isomer, unassigned) [Compound 2], the Kd lay within 501 to 1500 nM.
As for `Cc1c(-c2c(Cl)ncc3snc(O[C@H](Cc4ccccc4OCc4ccnn4CC(F)(F)F)C(=O)O)c23)ccc(OCCN2CCN(C)CC2)c1Cl` (single isomer, unassigned) [Compound 3], the Kd is greater than 1500 nM.
For `Cc1c(-c2c(Cl)ncc3snc(O[C@H](Cc4ccccc4OCc4ccnn4CC(F)(F)F)C(=O)O)c23)ccc(OCCN2CCN(C)CC2)c1Cl` (single isomer, unassigned) [Compound 4], the Kd is 501 to 1500 nM.
Consider `Cc1c(-c2c(-c3ccc(F)cc3)ncc3snc(O[C@H](Cc4ccccc4OCc4ccnn4CC(F)(F)F)C(=O)O)c23)ccc(OCCN2CCN(C)CC2)c1Cl` (single isomer, unassigned) [Compound 5], for which the Kd is greater than 1500 nM.
`Cc1c(-c2c(-c3ccc(F)cc3)ncc3snc(O[C@H](Cc4ccccc4OCc4ccnn4CC(F)(F)F)C(=O)O)c23)ccc(OCCN2CCN(C)CC2)c1Cl` (single isomer, unassigned) [Compound 6]: the Kd was in the range of 101 to 500 nM.
For `COc1cccc(-c2ncc3snc(O[C@H](Cc4ccccc4OCc4ccnc(-c5ccccc5OC)n4)C(=O)O)c3c2-c2ccc(OCCN3CCOCC3)c(Cl)c2C)c1` (single isomer, unassigned) [Compound 42], the Kd was no more than 100 nM.

For a further experiment, the target named is BCL2 (Homo sapiens, UniProt P10415). The experiment can be described thus: BCL2 affinity assay (competition binding, qPCR readout). Conditions: recombinant BCL2, 11-point 3-fold dilution series. The procedure, abridged: as §1
BCL2, sequence (P10415 whole entry): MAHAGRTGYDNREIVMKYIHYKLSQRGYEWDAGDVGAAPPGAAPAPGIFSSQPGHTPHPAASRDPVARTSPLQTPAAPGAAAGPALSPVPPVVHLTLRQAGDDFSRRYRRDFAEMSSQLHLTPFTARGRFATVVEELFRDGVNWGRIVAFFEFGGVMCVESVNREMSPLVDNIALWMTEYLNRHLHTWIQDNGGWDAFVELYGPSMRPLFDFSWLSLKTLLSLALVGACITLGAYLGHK
`Cc1c(-c2c(-c3cccc(F)c3)ncc3snc(O[C@H](Cc4ccccc4)C(=O)O)c23)ccc(OCCN2CCN(C)CC2)c1Cl` (atropisomer, axis not shown) [Compound 92]: the Kd is greater than 1500 nM.
For the molecule `Cc1c(-c2c(-c3ccc(F)s3)ncc3snc(O[C@H](Cc4ccccc4OCc4ccnn4CC(F)(F)F)C(=O)O)c23)ccc(OCCN2CCN(C)CC2)c1Cl` (single isomer, unassigned) [Compound 1], the Kd was greater than 1500 nM.
With `Cc1c(-c2c(-c3ccc(F)s3)ncc3snc(O[C@H](Cc4ccccc4OCc4ccnn4CC(F)(F)F)C(=O)O)c23)ccc(OCCN2CCN(C)CC2)c1Cl` (single isomer, unassigned) [Compound 2], the Kd is greater than 1500 nM.
In the case of `Cc1c(-c2c(Cl)ncc3snc(O[C@H](Cc4ccccc4OCc4ccnn4CC(F)(F)F)C(=O)O)c23)ccc(OCCN2CCN(C)CC2)c1Cl` (single isomer, unassigned) [Compound 3], the Kd was greater than 1500 nM.
`Cc1c(-c2c(Cl)ncc3snc(O[C@H](Cc4ccccc4OCc4ccnn4CC(F)(F)F)C(=O)O)c23)ccc(OCCN2CCN(C)CC2)c1Cl` (single isomer, unassigned) [Compound 4]: the Kd is greater than 1500 nM.
As for `Cc1c(-c2c(-c3ccc(F)cc3)ncc3snc(O[C@H](Cc4ccccc4OCc4ccnn4CC(F)(F)F)C(=O)O)c23)ccc(OCCN2CCN(C)CC2)c1Cl` (single isomer, unassigned) [Compound 5], the Kd was greater than 1500 nM.
Regarding `Cc1c(-c2c(-c3ccc(F)cc3)ncc3snc(O[C@H](Cc4ccccc4OCc4ccnn4CC(F)(F)F)C(=O)O)c23)ccc(OCCN2CCN(C)CC2)c1Cl` (single isomer, unassigned) [Compound 6], the Kd was greater than 1500 nM.
Turning to `COc1cccc(-c2ncc3snc(O[C@H](Cc4ccccc4OCc4ccnc(-c5ccccc5OC)n4)C(=O)O)c3c2-c2ccc(OCCN3CCOCC3)c(Cl)c2C)c1` (single isomer, unassigned) [Compound 42], the Kd is greater than 1500 nM.

Another experiment deals with drug-sensitive cell lines of Table 3. The experiment can be described thus: Cell line growth retardation assay, sensitive cohort. Conditions: Homo sapiens, 144 h, arithmetic mean of IC50s over the sensitive cohort of Table 3, 6 days growth; read-out: AvgSen IC50. The experiment is classed as cell-based, Human. The method in brief:
(§2)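 Cell lines classed as MCL1-inhibition sensitive or resistant were seeded, rested 24 h, then exposed to 10–0.0032 μM compound for 6 days. Cells were counted by imaging; growth inhibition was the ratio of population doublings with vs without compound from a pre-treatment baseline. IC50 from curve fits, averaged per cohort.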
As to `Cc1c(-c2c(-c3cccc(F)c3)ncc3snc(O[C@H](Cc4ccccc4)C(=O)O)c23)ccc(OCCN2CCN(C)CC2)c1Cl` (atropisomer, axis not shown) [Compound 92], the IC50 (in general, the concentration at which inhibition is half-maximal) was in the range of 1000 to 5000 nM.
For the molecule `Cc1c(-c2c(Cl)ncc3snc(O[C@H](Cc4ccccc4OCc4ccnn4CC(F)(F)F)C(=O)O)c23)ccc(OCCN2CCN(C)CC2)c1Cl` (single isomer, unassigned) [Compound 3], the IC50 is greater than 5000 nM.
Still for that read-out and setting: in the case of `COc1cccc(-c2ncc3snc(O[C@H](Cc4ccccc4OCc4ccnc(-c5ccccc5OC)n4)C(=O)O)c3c2-c2ccc(OCCN3CCOCC3)c(Cl)c2C)c1` (single isomer, unassigned) [Compound 42] it was 1000 to 5000 nM.

The same experiment, now with this note: arithmetic mean of IC50s over the sensitive cohort of Table 3, 6 days growth; read-out: AvgSen IC50.
Turning to `Cc1c(-c2c(-c3ccc(F)s3)ncc3snc(O[C@H](Cc4ccccc4OCc4ccnn4CC(F)(F)F)C(=O)O)c23)ccc(OCCN2CCN(C)CC2)c1Cl` (single isomer, unassigned) [Compound 1], the IC50 is greater than 5000 nM.
`Cc1c(-c2c(-c3ccc(F)s3)ncc3snc(O[C@H](Cc4ccccc4OCc4ccnn4CC(F)(F)F)C(=O)O)c23)ccc(OCCN2CCN(C)CC2)c1Cl` (single isomer, unassigned) [Compound 2]: the IC50 was 1000 to 5000 nM.
Consider `Cc1c(-c2c(Cl)ncc3snc(O[C@H](Cc4ccccc4OCc4ccnn4CC(F)(F)F)C(=O)O)c23)ccc(OCCN2CCN(C)CC2)c1Cl` (single isomer, unassigned) [Compound 4], for which the IC50 was greater than 5000 nM.
Turning to `Cc1c(-c2c(-c3ccc(F)cc3)ncc3snc(O[C@H](Cc4ccccc4OCc4ccnn4CC(F)(F)F)C(=O)O)c23)ccc(OCCN2CCN(C)CC2)c1Cl` (single isomer, unassigned) [Compound 5], the IC50 is greater than 5000 nM.
`Cc1c(-c2c(-c3ccc(F)cc3)ncc3snc(O[C@H](Cc4ccccc4OCc4ccnn4CC(F)(F)F)C(=O)O)c23)ccc(OCCN2CCN(C)CC2)c1Cl` (single isomer, unassigned) [Compound 6]: the IC50 lay in the range of 1000 to 5000 nM.

The experiment is the same for the next values; noted with them: average IC50 of resistant cohort divided by average IC50 of sensitive cohort.
Regarding `Cc1c(-c2c(-c3cccc(F)c3)ncc3snc(O[C@H](Cc4ccccc4)C(=O)O)c23)ccc(OCCN2CCN(C)CC2)c1Cl` (atropisomer, axis not shown) [Compound 92], the “Fold Diff” value is listed as “− (“−” represents a fold difference less than 10)”.
In the case of `Cc1c(-c2c(-c3ccc(F)s3)ncc3snc(O[C@H](Cc4ccccc4OCc4ccnn4CC(F)(F)F)C(=O)O)c23)ccc(OCCN2CCN(C)CC2)c1Cl` (single isomer, unassigned) [Compound 1], the “Fold Diff” value is “− (“−” represents a fold difference less than 10)”.
Consider `Cc1c(-c2c(-c3ccc(F)s3)ncc3snc(O[C@H](Cc4ccccc4OCc4ccnn4CC(F)(F)F)C(=O)O)c23)ccc(OCCN2CCN(C)CC2)c1Cl` (single isomer, unassigned) [Compound 2], for which the “Fold Diff” value is given as “− (“−” represents a fold difference less than 10)”.
On the same count and under the same terms, the result for `Cc1c(-c2c(Cl)ncc3snc(O[C@H](Cc4ccccc4OCc4ccnn4CC(F)(F)F)C(=O)O)c23)ccc(OCCN2CCN(C)CC2)c1Cl` (single isomer, unassigned) [Compound 3] reads “− (“−” represents a fold difference less than 10)”; that for `Cc1c(-c2c(Cl)ncc3snc(O[C@H](Cc4ccccc4OCc4ccnn4CC(F)(F)F)C(=O)O)c23)ccc(OCCN2CCN(C)CC2)c1Cl` (single isomer, unassigned) [Compound 4], “− (“−” represents a fold difference less than 10)”; that for `Cc1c(-c2c(-c3ccc(F)cc3)ncc3snc(O[C@H](Cc4ccccc4OCc4ccnn4CC(F)(F)F)C(=O)O)c23)ccc(OCCN2CCN(C)CC2)c1Cl` (single isomer, unassigned) [Compound 5], “− (“−” represents a fold difference less than 10)”.
Still for that read-out and setting: the result for `Cc1c(-c2c(-c3ccc(F)cc3)ncc3snc(O[C@H](Cc4ccccc4OCc4ccnn4CC(F)(F)F)C(=O)O)c23)ccc(OCCN2CCN(C)CC2)c1Cl` (single isomer, unassigned) [Compound 6] reads “− (“−” represents a fold difference less than 10)”; that for `COc1cccc(-c2ncc3snc(O[C@H](Cc4ccccc4OCc4ccnc(-c5ccccc5OC)n4)C(=O)O)c3c2-c2ccc(OCCN3CCOCC3)c(Cl)c2C)c1` (single isomer, unassigned) [Compound 42], “− (“−” represents a fold difference less than 10)”.

A further experiment concerns drug-resistant cell lines of Table 3. The experiment can be described thus: Cell line growth retardation assay, resistant cohort. The experiment is classed as cell-based, Human. Particulars: Homo sapiens, 144 h; arithmetic mean of IC50s over the resistant cohort of Table 3, 6 days growth; read-out: AvgRes IC50. The method in brief: as §2
Turning to `Cc1c(-c2c(-c3cccc(F)c3)ncc3snc(O[C@H](Cc4ccccc4)C(=O)O)c23)ccc(OCCN2CCN(C)CC2)c1Cl` (atropisomer, axis not shown) [Compound 92], the IC50 is greater than 5000 nM.
On the same count and under the same terms, the result for `Cc1c(-c2c(-c3ccc(F)s3)ncc3snc(O[C@H](Cc4ccccc4OCc4ccnn4CC(F)(F)F)C(=O)O)c23)ccc(OCCN2CCN(C)CC2)c1Cl` (single isomer, unassigned) [Compound 1] reads greater than 5000 nM; that for `Cc1c(-c2c(Cl)ncc3snc(O[C@H](Cc4ccccc4OCc4ccnn4CC(F)(F)F)C(=O)O)c23)ccc(OCCN2CCN(C)CC2)c1Cl` (single isomer, unassigned) [Compound 3], greater than 5000 nM.
`Cc1c(-c2c(-c3ccc(F)cc3)ncc3snc(O[C@H](Cc4ccccc4OCc4ccnn4CC(F)(F)F)C(=O)O)c23)ccc(OCCN2CCN(C)CC2)c1Cl` (single isomer, unassigned) [Compound 6]: the IC50 is greater than 5000 nM.
Turning to `COc1cccc(-c2ncc3snc(O[C@H](Cc4ccccc4OCc4ccnc(-c5ccccc5OC)n4)C(=O)O)c3c2-c2ccc(OCCN3CCOCC3)c(Cl)c2C)c1` (single isomer, unassigned) [Compound 42], the IC50 was greater than 5000 nM.

The experiment is the same for the next values; noted with them: arithmetic mean of IC50s over the resistant cohort of Table 3, 6 days growth; read-out: AvgRes IC50.
In the case of `Cc1c(-c2c(-c3ccc(F)s3)ncc3snc(O[C@H](Cc4ccccc4OCc4ccnn4CC(F)(F)F)C(=O)O)c23)ccc(OCCN2CCN(C)CC2)c1Cl` (single isomer, unassigned) [Compound 2], the IC50 is greater than 5000 nM.
Consider `Cc1c(-c2c(Cl)ncc3snc(O[C@H](Cc4ccccc4OCc4ccnn4CC(F)(F)F)C(=O)O)c23)ccc(OCCN2CCN(C)CC2)c1Cl` (single isomer, unassigned) [Compound 4], for which the IC50 was greater than 5000 nM.
In the case of `Cc1c(-c2c(-c3ccc(F)cc3)ncc3snc(O[C@H](Cc4ccccc4OCc4ccnn4CC(F)(F)F)C(=O)O)c23)ccc(OCCN2CCN(C)CC2)c1Cl` (single isomer, unassigned) [Compound 5], the IC50 was greater than 5000 nM.

A further experiment deals with BCLXL (Homo sapiens, UniProt Q07817). The experiment can be described thus: BCLXL affinity assay (competition binding, qPCR readout). Conditions: recombinant BCLXL, 11-point 3-fold dilution series. The method in brief:
as §1
With `Cc1c(-c2c(-c3cccc(F)c3)ncc3snc(O[C@H](Cc4ccccc4)C(=O)O)c23)ccc(OCCN2CCN(C)CC2)c1Cl` (atropisomer, axis not shown) [Compound 92], the Kd is greater than 1500 nM.
Same read-out and setting: in the case of `Cc1c(-c2c(-c3ccc(F)s3)ncc3snc(O[C@H](Cc4ccccc4OCc4ccnn4CC(F)(F)F)C(=O)O)c23)ccc(OCCN2CCN(C)CC2)c1Cl` (single isomer, unassigned) [Compound 1] it was greater than 1500 nM; in that of `Cc1c(-c2c(-c3ccc(F)s3)ncc3snc(O[C@H](Cc4ccccc4OCc4ccnn4CC(F)(F)F)C(=O)O)c23)ccc(OCCN2CCN(C)CC2)c1Cl` (single isomer, unassigned) [Compound 2], greater than 1500 nM.
With `Cc1c(-c2c(Cl)ncc3snc(O[C@H](Cc4ccccc4OCc4ccnn4CC(F)(F)F)C(=O)O)c23)ccc(OCCN2CCN(C)CC2)c1Cl` (single isomer, unassigned) [Compound 3], the Kd is greater than 1500 nM.
On to `Cc1c(-c2c(Cl)ncc3snc(O[C@H](Cc4ccccc4OCc4ccnn4CC(F)(F)F)C(=O)O)c23)ccc(OCCN2CCN(C)CC2)c1Cl` (single isomer, unassigned) [Compound 4], for which the Kd was greater than 1500 nM.
With `Cc1c(-c2c(-c3ccc(F)cc3)ncc3snc(O[C@H](Cc4ccccc4OCc4ccnn4CC(F)(F)F)C(=O)O)c23)ccc(OCCN2CCN(C)CC2)c1Cl` (single isomer, unassigned) [Compound 5], the Kd is greater than 1500 nM.
Still for that read-out and setting: the result for `Cc1c(-c2c(-c3ccc(F)cc3)ncc3snc(O[C@H](Cc4ccccc4OCc4ccnn4CC(F)(F)F)C(=O)O)c23)ccc(OCCN2CCN(C)CC2)c1Cl` (single isomer, unassigned) [Compound 6] reads greater than 1500 nM; that for `COc1cccc(-c2ncc3snc(O[C@H](Cc4ccccc4OCc4ccnc(-c5ccccc5OC)n4)C(=O)O)c3c2-c2ccc(OCCN3CCOCC3)c(Cl)c2C)c1` (single isomer, unassigned) [Compound 42], greater than 1500 nM.

For the origin of these results see patent US20230116602A1, “MCL1 INHIBITORS AND USES THEREOF” (California Institute of Technology, priority 2019, published 2023).
